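96-well plates; 48 h exposure; 5 concentrations. Endpoints by linear interpolation between flanking doses. Not reached: highest tested concentration assigned. GI50: concentration for 50% inhibition of growth. At the TGI there is no net growth.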
What was measured:
Assay in all cases: inhibition of tumour cell growth, NCI panel, 48 h; in the data active = GI50 below about 0.43 µM; inactive = the rest
UO-31 renal = tested on: UO-31 renal
DU-145 prostate = tested on: DU-145 prostate
HCC-2998 colon = tested on: HCC-2998 colon
OVCAR-3 ovarian = tested on: OVCAR-3 ovarian
EKVX NSCLC = tested on: EKVX NSCLC
TK-10 renal = tested on: TK-10 renal
COLO 205 colon = tested on: COLO 205 colon
MDA-MB-231 breast = tested on: MDA-MB-231 breast
SK-MEL-2 melanoma = tested on: SK-MEL-2 melanoma
786-0 renal = tested on: 786-0 renal
UACC-62 melanoma = tested on: UACC-62 melanoma
NCI-H460 lung = tested on: NCI-H460 lung
OVCAR-8 ovarian = tested on: OVCAR-8 ovarian
NCI-H226 lung = tested on: NCI-H226 lung
SK-MEL-5 melanoma = tested on: SK-MEL-5 melanoma
A549 NSCLC = tested on: A549 NSCLC
HL-60(TB) leukemia = tested on: HL-60(TB) leukemia
HOP-62 NSCLC = tested on: HOP-62 NSCLC
MDA-MB-435 = tested on: MDA-MB-435
T-47D breast = tested on: T-47D breast
SF-539 CNS = tested on: SF-539 CNS
NCI-H23 lung = tested on: NCI-H23 lung
HT29 colon = tested on: HT29 colon
BT-549 breast = tested on: BT-549 breast
SK-MEL-28 melanoma = tested on: SK-MEL-28 melanoma
LOX IMVI melanoma = tested on: LOX IMVI melanoma
PC-3 prostate = tested on: PC-3 prostate
OVCAR-4 ovarian = tested on: OVCAR-4 ovarian
CCRF-CEM leukemia = tested on: CCRF-CEM leukemia
OVCAR-5 ovarian = tested on: OVCAR-5 ovarian
RXF 393 renal = tested on: RXF 393 renal
U251 CNS = tested on: U251 CNS
ACHN renal = tested on: ACHN renal
NCI/ADR-RES ovarian = tested on: NCI/ADR-RES ovarian
SF-268 CNS = tested on: SF-268 CNS
M14 melanoma = tested on: M14 melanoma
SW-620 colon = tested on: SW-620 colon
SNB-19 CNS = tested on: SNB-19 CNS
MOLT-4 leukemia = tested on: MOLT-4 leukemia
HCT-116 colon = tested on: HCT-116 colon
MCF7 breast = tested on: MCF7 breast
SN12C renal = tested on: SN12C renal
NCI-H522 lung = tested on: NCI-H522 lung
A498 renal = tested on: A498 renal
K-562 leukemia = tested on: K-562 leukemia
RPMI-8226 leukemia = tested on: RPMI-8226 leukemia
KM12 colon = tested on: KM12 colon
HCT-15 colon = tested on: HCT-15 colon
HS 578T breast = tested on: HS 578T breast
SNB-75 CNS = tested on: SNB-75 CNS
HOP-92 NSCLC = tested on: HOP-92 NSCLC
SF-295 CNS = tested on: SF-295 CNS
CAKI-1 renal = tested on: CAKI-1 renal
MALME-3M melanoma = tested on: MALME-3M melanoma
SK-OV-3 ovarian = tested on: SK-OV-3 ovarian
IGROV1 ovarian = tested on: IGROV1 ovarian
UACC-257 melanoma = tested on: UACC-257 melanoma
SR leukemia = tested on: SR leukemia

Cc1c2c[n+](C(C)C)ccc2c(C)c2c1[nH]c1ccccc12
53.9 µM: TGI (EKVX NSCLC)
13.1 µM: TGI (RPMI-8226 leukemia)
15.4 µM: TGI (OVCAR-4 ovarian)
43 µM: TGI (MDA-MB-231 breast)
> 100 µM: TGI (UO-31 renal) | TGI (TK-10 renal) | TGI (786-0 renal) | TGI (A549 NSCLC) | TGI (OVCAR-5 ovarian) | TGI (RXF 393 renal) | TGI (ACHN renal) | TGI (NCI/ADR-RES ovarian) | TGI (HCT-15 colon) | TGI (CAKI-1 renal)
20 µM: TGI (SF-295 CNS)
15.7 µM: TGI (NCI-H23 lung)
16.4 µM: TGI (SF-539 CNS)
38.7 µM: TGI (CCRF-CEM leukemia)
32.1 µM: TGI (OVCAR-8 ovarian) | TGI (LOX IMVI melanoma)
6.95 µM: TGI (HOP-92 NSCLC)
39.8 µM: TGI (SK-OV-3 ovarian)
12.9 µM: TGI (SK-MEL-28 melanoma)
9.81 µM: TGI (SK-MEL-2 melanoma)
40.6 µM: TGI (PC-3 prostate)
13.2 µM: TGI (MDA-MB-435)
6.64 µM: TGI (T-47D breast)
3.89 µM: TGI (SK-MEL-5 melanoma)
49.7 µM: TGI (SW-620 colon)
36.1 µM: TGI (HOP-62 NSCLC)
17 µM: TGI (M14 melanoma)
58.8 µM: TGI (HT29 colon)
11.8 µM: TGI (SN12C renal)
6.9 µM: TGI (MALME-3M melanoma)
13.7 µM: TGI (HCC-2998 colon)
active: GI50 (SNB-19 CNS) 0.416 µM | GI50 (SN12C renal) 0.32 µM
inactive: GI50 (UO-31 renal) 20.6 µM | GI50 (DU-145 prostate) 4.74 µM | GI50 (HCC-2998 colon) 2.99 µM | GI50 (OVCAR-3 ovarian) 2.61 µM | GI50 (EKVX NSCLC) 3.51 µM | GI50 (TK-10 renal) 21.1 µM | GI50 (COLO 205 colon) 1.77 µM | GI50 (MDA-MB-231 breast) 4.86 µM | GI50 (SK-MEL-2 melanoma) 2.89 µM | GI50 (786-0 renal) 1.53 µM | GI50 (UACC-62 melanoma) 2.7 µM | GI50 (NCI-H460 lung) 2.44 µM | GI50 (OVCAR-8 ovarian) 1.46 µM | GI50 (NCI-H226 lung) 4.32 µM | GI50 (SK-MEL-5 melanoma) 1.5 µM | GI50 (A549 NSCLC) 2.55 µM | GI50 (HL-60(TB) leukemia) 3.13 µM | GI50 (HOP-62 NSCLC) 2.35 µM | GI50 (MDA-MB-435) 3.2 µM | GI50 (T-47D breast) 1.48 µM | GI50 (SF-539 CNS) 1.62 µM | GI50 (NCI-H23 lung) 1.75 µM | GI50 (HT29 colon) 3.15 µM | GI50 (BT-549 breast) 1.72 µM | GI50 (SK-MEL-28 melanoma) 2.25 µM | GI50 (LOX IMVI melanoma) 9.17 µM | GI50 (PC-3 prostate) 2.59 µM | GI50 (OVCAR-4 ovarian) 2.61 µM | GI50 (CCRF-CEM leukemia) 3.97 µM | GI50 (OVCAR-5 ovarian) 5.95 µM | GI50 (RXF 393 renal) 6.19 µM | GI50 (U251 CNS) 0.456 µM | GI50 (ACHN renal) 22.6 µM | GI50 (NCI/ADR-RES ovarian) 56.5 µM | GI50 (SF-268 CNS) 0.475 µM | GI50 (M14 melanoma) 3.77 µM | GI50 (SW-620 colon) 3.63 µM | GI50 (MOLT-4 leukemia) 3.28 µM | GI50 (HCT-116 colon) 4.36 µM | GI50 (MCF7 breast) 1.85 µM | GI50 (NCI-H522 lung) 2.26 µM | GI50 (A498 renal) 1.94 µM | GI50 (K-562 leukemia) 2.72 µM | GI50 (RPMI-8226 leukemia) 1.82 µM | GI50 (KM12 colon) 1.14 µM | GI50 (HCT-15 colon) 52.1 µM | GI50 (HS 578T breast) 1.13 µM | GI50 (SNB-75 CNS) 1.34 µM | GI50 (HOP-92 NSCLC) 1.86 µM | GI50 (SF-295 CNS) 1.32 µM | GI50 (CAKI-1 renal) > 100 µM | GI50 (MALME-3M melanoma) 1.48 µM | GI50 (SK-OV-3 ovarian) 3.19 µM
15.2 µM: TGI (U251 CNS)
14.9 µM: TGI (SF-268 CNS)
6.46 µM: TGI (COLO 205 colon)
40.9 µM: TGI (SNB-75 CNS)
14.7 µM: TGI (SNB-19 CNS)
19 µM: TGI (HS 578T breast)
19.2 µM: TGI (HL-60(TB) leukemia)
68.2 µM: TGI (HCT-116 colon)
29 µM: TGI (K-562 leukemia)
14.8 µM: TGI (MCF7 breast)
17.8 µM: TGI (MOLT-4 leukemia)
12.2 µM: TGI (OVCAR-3 ovarian)
11.2 µM: TGI (BT-549 breast)
15 µM: TGI (UACC-62 melanoma)
10.9 µM: TGI (NCI-H460 lung) | TGI (KM12 colon)
11.4 µM: TGI (NCI-H522 lung)
64 µM: TGI (A498 renal)
41.5 µM: TGI (NCI-H226 lung)
54.1 µM: TGI (DU-145 prostate)

C=CCNC(=O)NC1=CSC2=NC(=O)C3(NN12)c1ccccc1-c1ccccc13
> 10 µM: TGI (UO-31 renal) | TGI (DU-145 prostate) | TGI (HCC-2998 colon) | TGI (EKVX NSCLC) | TGI (TK-10 renal) | TGI (COLO 205 colon) | TGI (MDA-MB-231 breast) | TGI (786-0 renal) | TGI (UACC-62 melanoma) | TGI (NCI-H460 lung) | TGI (OVCAR-8 ovarian) | TGI (NCI-H226 lung) | TGI (SK-MEL-5 melanoma) | TGI (A549 NSCLC) | TGI (IGROV1 ovarian) | TGI (HL-60(TB) leukemia) | TGI (HOP-62 NSCLC) | TGI (UACC-257 melanoma) | TGI (MDA-MB-435) | TGI (T-47D breast) | TGI (SF-539 CNS) | TGI (NCI-H23 lung) | TGI (HT29 colon) | TGI (BT-549 breast) | TGI (SK-MEL-28 melanoma) | TGI (LOX IMVI melanoma) | TGI (PC-3 prostate) | TGI (OVCAR-4 ovarian) | TGI (CCRF-CEM leukemia) | TGI (OVCAR-5 ovarian) | TGI (RXF 393 renal) | TGI (ACHN renal) | TGI (NCI/ADR-RES ovarian) | TGI (SF-268 CNS) | TGI (M14 melanoma) | TGI (SW-620 colon) | TGI (SNB-19 CNS) | TGI (MOLT-4 leukemia) | TGI (HCT-116 colon) | TGI (MCF7 breast) | TGI (SN12C renal) | TGI (NCI-H522 lung) | TGI (SR leukemia) | TGI (K-562 leukemia) | TGI (RPMI-8226 leukemia) | TGI (KM12 colon) | TGI (HCT-15 colon) | TGI (HS 578T breast) | TGI (SNB-75 CNS) | TGI (HOP-92 NSCLC) | TGI (SF-295 CNS) | TGI (CAKI-1 renal) | TGI (MALME-3M melanoma) | TGI (SK-OV-3 ovarian)

Reference: PubChem BioAssay (NCI)
